Data: ChEMBL document CHEMBL1201862, “PubChem BioAssay data set” (2004)
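These data come from cells grown in 96-well plates and exposed to compound for 48 hours at five concentrations. The concentration for 50% growth inhibition is given as GI50.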 The source made the active and inactive calls. Rule as the data show it: active = GI50 up to about 1.1 µM and inactive = higher.

Assays:
Experiment in all cases: NCI tumour cell line growth inhibition, 48 h
[1] = test system: SNB-75
[2] = test system: CAKI-1
[3] = test system: SR
[4] = test system: SK-MEL-2
[5] = test system: SK-MEL-5
[6] = test system: RXF 393
[7] = test system: UO-31
[8] = test system: OVCAR-4
[9] = test system: SNB-19
[10] = test system: NCI-H23
[11] = test system: HCT-116
[12] = test system: KM12
[13] = test system: 786-0
[14] = test system: OVCAR-8
[15] = test system: NCI-H226
[16] = test system: HL-60
[17] = test system: SK-OV-3

Measured: GI50

O=C(c1ccccc1)c1nc2ccc(Cl)cc2c2c1Cc1ccccc1-2
inactive: [1] 46.5 µM | [2] > 100 µM | [3] > 100 µM | [4] > 100 µM | [5] > 100 µM | [6] > 100 µM | [7] > 100 µM | [8] > 100 µM | [9] > 100 µM | [10] > 100 µM | [11] > 100 µM | [12] > 100 µM | [13] > 100 µM | [14] > 100 µM | [15] > 100 µM

CC1=C(C(=O)NCc2ccccc2)C(/C=C/c2ccccc2)C(C(=O)NCc2ccccc2)=C(C)N1
inactive: [1] 85.9 µM | [2] > 100 µM | [3] > 100 µM | [4] > 100 µM | [5] > 100 µM | [6] > 100 µM | [7] > 100 µM | [8] > 100 µM | [9] > 100 µM | [16] > 100 µM | [10] > 100 µM | [11] > 100 µM | [12] > 100 µM | [13] > 100 µM | [14] > 100 µM | [15] > 100 µM

C=C1C(=O)OC2C/C(C)=C/CC/C(C)=C/CCC3(COC(C)=O)OC3CC12 (centres undefined)
inactive: [1] 11.6 µM | [2] 3.31 µM | [4] 3.33 µM | [5] 14.9 µM | [17] 13.7 µM | [6] 2.51 µM | [7] 12.7 µM | [8] 26.7 µM | [9] 16.5 µM | [16] 2.21 µM | [10] 11.8 µM | [11] 1.84 µM | [12] 13.7 µM | [13] 5.65 µM | [14] 6.52 µM

COCOc1ccc(C(=O)C(C)c2ccc(OCOC)cc2OCOC)c(O)c1 (centres undefined)
inactive: [1] 33.5 µM | [2] 52.1 µM | [3] 40.7 µM | [5] 37 µM | [17] > 100 µM | [6] 37.2 µM | [7] 33.2 µM | [8] > 100 µM | [9] > 100 µM | [16] 30.9 µM | [10] 60.8 µM | [11] > 100 µM | [13] > 100 µM | [14] > 100 µM

CCCCOC(=O)NC(=O)c1cn(CCCOC(=O)CCCCCCCCC(=O)OCCCn2cc(C(=O)NC(=O)OCCCC)c(=O)[nH]c2=O)c(=O)[nH]c1=O
inactive: [3] > 100 µM | [4] > 100 µM | [5] > 100 µM | [17] > 100 µM | [6] 83 µM | [7] > 100 µM | [8] > 100 µM | [9] > 100 µM | [16] > 100 µM | [10] > 100 µM | [11] > 100 µM | [12] > 100 µM | [13] > 100 µM | [14] > 100 µM | [15] > 100 µM

CC(C)N(C(=O)C12C3C4C1C1C2C3C41C(=O)C(C)(C)C)C(C)C (centres undefined)
inactive: [1] > 100 µM | [2] > 100 µM | [4] > 100 µM | [5] 38.8 µM | [17] > 100 µM | [7] 46.1 µM | [8] > 100 µM | [9] > 100 µM | [16] 18.1 µM | [10] > 100 µM | [11] 92.9 µM | [12] > 100 µM | [13] > 100 µM | [14] > 100 µM

O=[N+]([O-])c1ccc(N=P(c2ccccc2)(c2ccccc2)c2ccccc2)n2nnnc12
inactive: [1] 21.9 µM | [2] 45.1 µM | [4] 33.7 µM | [5] 67 µM | [17] 46.1 µM | [6] 44 µM | [7] 78.7 µM | [8] 31.8 µM | [9] 33.4 µM | [16] 36.1 µM | [10] > 100 µM | [12] 66.4 µM | [13] 28.1 µM | [14] 31 µM

Cc1ccc(S(=O)(=O)NC(=O)C#CCOC2CCCCO2)cc1 (centres undefined)
inactive: [1] > 100 µM | [2] > 100 µM | [3] > 100 µM | [4] 82.8 µM | [5] > 100 µM | [6] > 100 µM | [7] > 100 µM | [8] > 100 µM | [9] > 100 µM | [16] > 100 µM | [10] > 100 µM | [11] > 100 µM | [13] > 100 µM | [14] > 100 µM | [15] > 100 µM

Cc1cc(Cl)ccc1NC(=O)CCCC(=O)C1C/C(=N/O)CC/C1=N\O (centres undefined)
inactive: [1] > 100 µM | [2] > 100 µM | [4] > 100 µM | [5] > 100 µM | [17] > 100 µM | [7] > 100 µM | [8] > 100 µM | [9] > 100 µM | [16] > 100 µM | [10] > 100 µM | [11] > 100 µM | [12] > 100 µM | [13] > 100 µM | [14] > 100 µM | [15] > 100 µM

O=C(Nc1ccccc1C(=O)NC(=O)c1ccccc1NC(=O)c1ccccc1)c1ccccc1
inactive: [1] 2.83 µM | [2] 10.6 µM | [3] 2.42 µM | [4] 1.87 µM | [5] 2.9 µM | [6] 2.88 µM | [8] 3.41 µM | [9] 7.36 µM | [10] 4.57 µM | [11] 3.45 µM | [12] 1.58 µM | [13] 12 µM | [14] 5.04 µM

COc1ccccc1NC(=O)NS(=O)(=O)c1ccccc1
inactive: [1] > 100 µM | [2] 91.6 µM | [4] > 100 µM | [5] > 100 µM | [6] 28.9 µM | [7] > 100 µM | [8] > 100 µM | [9] > 100 µM | [16] > 100 µM | [10] > 100 µM | [11] > 100 µM | [12] > 100 µM | [13] > 100 µM | [14] > 100 µM | [15] 87.1 µM

COc1ccc2c(c1)[n+]([O-])c(/C(C)=N/NC(=O)c1ccccc1O)c(C)[n+]2[O-]
inactive: [2] > 100 µM | [4] > 100 µM | [5] > 100 µM | [17] > 100 µM | [6] > 100 µM | [7] > 100 µM | [8] > 100 µM | [9] > 100 µM | [16] > 100 µM | [10] > 100 µM | [11] > 100 µM | [12] > 100 µM | [13] > 100 µM | [14] 97.9 µM | [15] > 100 µM

COc1cc(Nc2cnc3cc(C(F)(F)F)ccc3n2)cc(OC)c1OC
inactive: [1] > 100 µM | [3] > 100 µM | [4] > 100 µM | [17] > 100 µM | [6] > 100 µM | [7] > 100 µM | [9] > 100 µM | [16] > 100 µM | [10] > 100 µM | [11] > 100 µM | [13] > 100 µM | [14] > 100 µM | [15] > 100 µM
